Measured values as given in article PMC6302903, “Protein and Chemical Determinants of BL-1249 Action and Selectivity for K2P Channels” (ACS Chemical Neuroscience, 2018).

Legend:
K2P4.1(TRAAK) M134F = target: T1, K2P4.1(TRAAK) M134F (Mus musculus, UniProt O88454, M134F); assay: TEVC of K2P4.1(TRAAK) mutant M134F; type: cell-based; conditions: Xenopus oocytes, saturation not reached, fit with upper boundary of 15 (I/I0)
T1 construct: expressed in transfected cells; host or cells: Xenopus laevis oocytes, mRNA injected
T1 sequence (O88454 whole entry M134F): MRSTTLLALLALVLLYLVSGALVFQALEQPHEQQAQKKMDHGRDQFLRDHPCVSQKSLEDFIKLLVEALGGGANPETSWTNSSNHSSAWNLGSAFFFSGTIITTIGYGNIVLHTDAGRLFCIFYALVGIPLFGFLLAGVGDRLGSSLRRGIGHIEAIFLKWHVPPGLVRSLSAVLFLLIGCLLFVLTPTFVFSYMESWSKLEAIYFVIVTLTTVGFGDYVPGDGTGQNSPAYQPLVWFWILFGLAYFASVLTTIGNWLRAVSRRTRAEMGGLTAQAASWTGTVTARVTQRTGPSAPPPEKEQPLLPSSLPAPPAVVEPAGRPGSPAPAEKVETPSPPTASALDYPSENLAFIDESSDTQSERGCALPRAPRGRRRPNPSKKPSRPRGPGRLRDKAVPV
Description: To identify K2P2.1(TREK-1) M2 residues that might participate in the BL-1249 response, we mapped the residues that differ between K2P2.1(TREK-1) and K2P4.1(TRAAK) in the context of the K2P2.1(TREK-1) structure[6] (Figure 5B,C). Two K2P2.1(TREK-1) M2 residues stood out as candidates that could explain the reduction in BL-1249 response when the entire M2 helix was replaced with M2 from K2P4.1(TRAAK). One is at the M2/M4 interface and occurs between Phe172 and Arg297 via a π–cation interaction that would be lost when Phe172 is replaced with the equivalent K2P4.1(TRAAK) residue Met134 (Figure 5C, right inset). […] To assess the importance of these interactions in the context of BL-1249 response, we made the K2P2.1(TREK-1) mutants F172M and F185L and measured their responses to BL-1249 (Figure 5D). […]
Xenopus laevis oocytes were harvested in accordance with UCSF IACUC protocol AN129690 and digested in calcium-free ND-96 (96 mM NaCl, 2 mM KCl, 3.8 mM MgCl2) immediately following harvest, as previously described.[6],[10] […] Defolliculated stage V–VI oocytes were injected with 0.2–6.0 ng of mRNA in 50 nL, and currents were recorded 24–48 h after injection. mRNA was synthesized from plasmid DNA using mMessage mMachine Kit (T7 promoter, Ambion, Life Technologies) and purified using RNEasy Kit (Qiagen). […]

K2P10.1(TREK-2) = target: T2, K2P10.1(TREK-2) (Mus musculus, UniProt Q8BUW1); assay: TEVC of K2P10.1(TREK-2) in Xenopus oocytes; type: cell-based
T2 construct: expressed in transfected cells; host or cells: Xenopus laevis oocytes injected with mRNA made from pGEMHE/pMO
T2 sequence (Q8BUW1 whole entry): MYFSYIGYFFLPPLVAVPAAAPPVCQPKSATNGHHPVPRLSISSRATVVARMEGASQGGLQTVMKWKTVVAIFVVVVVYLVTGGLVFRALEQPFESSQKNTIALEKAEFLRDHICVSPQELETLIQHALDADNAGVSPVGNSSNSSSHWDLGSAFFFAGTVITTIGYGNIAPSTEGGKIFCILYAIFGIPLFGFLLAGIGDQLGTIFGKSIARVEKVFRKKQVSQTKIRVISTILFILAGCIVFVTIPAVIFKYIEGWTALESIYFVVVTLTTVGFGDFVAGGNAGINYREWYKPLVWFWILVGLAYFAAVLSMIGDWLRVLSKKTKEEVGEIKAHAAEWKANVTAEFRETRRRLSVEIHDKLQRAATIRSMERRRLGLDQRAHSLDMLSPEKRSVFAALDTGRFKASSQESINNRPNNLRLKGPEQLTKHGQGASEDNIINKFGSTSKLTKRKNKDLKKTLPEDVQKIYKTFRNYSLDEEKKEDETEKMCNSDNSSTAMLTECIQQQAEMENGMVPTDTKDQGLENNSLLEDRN
Description: Constructs for murine K2P channels, including K2P2.1(TREK-1) (Gene ID 16526), K2P10.1(TREK-2) (Gene ID 72258), K2P4.1(TRAAK) (Gene ID 16528), K2P5.1(TASK-2) (Gene ID 16529), K2P3.1(TASK-1) (Gene ID 16527), K2P9.1(TASK-3) (Gene ID 223604), and K2P18.1(TRESK) (Gene ID 332396) in pGEMHE/pMO, were used for Xenopus oocyte experiments as previously described.[10],[26] Murine K2P2.1(TREK-1) (Gene ID 16526) was expressed in HEK-293 cells using a pIRES-EGFP construct as previously described.[26] Murine K2P13.1(THIK-1) (Gene ID 217826) and K2P1.1(TWIK-1) (Gene ID 16525) were cloned into pGEMHE/pMO for use in Xenopus oocytes. […]
Xenopus laevis oocytes were harvested in accordance with UCSF IACUC protocol AN129690 and digested in calcium-free ND-96 (96 mM NaCl, 2 mM KCl, 3.8 mM MgCl2) immediately following harvest, as previously described.[6],[10] […] Defolliculated stage V–VI oocytes were injected with 0.2–6.0 ng of mRNA in 50 nL, and currents were recorded 24–48 h after injection. mRNA was synthesized from plasmid DNA using mMessage mMachine Kit (T7 promoter, Ambion, Life Technologies) and purified using RNEasy Kit (Qiagen). […] Once stabilized basal currents were recorded, compounds were perfused at various concentrations in standard ND96 and currents were allowed to increase to stabilization before recording final current. […]

Q: Which EC50 (K2P4.1(TRAAK) M134F) does the source give for `c1ccc(-c2nnn[nH]2)c(Nc2cccc3c2CCCC3)c1` [BL-1249, (5,6,7,8-tetrahydro-naphthalen-1-yl)-[2-(1H-tetrazol-5-yl)-phenyl]-amine] here?
A: Its EC50 is 58 ± 34 µM.

Q: And the EC50 (K2P10.1(TREK-2); I/I0 at 0 mV)?
A: Its EC50 is 8 ± 0.8 µM.

Q: What about the “K2P10.1(TREK-2) current response” value (K2P10.1(TREK-2); extracellular application of 10 μM) of the same compound?
A: The value was “clear activation responses”.
